Broadly, the IC50 is the midpoint of a concentration-inhibition curve. A high value points to weaker potency.

Some results are limits rather than exact numbers.

One assay addresses RON (Homo sapiens, UniProt Q04912). As to the kind of experiment: Inhibitory activity against RON, TR-FRET kinase assay. Type of assay: biochemical. Conditions: TR-FRET enzyme assay. How it is done: In order to measure the inhibitory activity of each of the compounds of Examples against RON, the IC50 of each of the compounds was measured using Time-resolved fluorescence energy transfer (TR-FRET).
Specifically, the compound was prepared to a concentration of 1 mM in 100% DMSO and was diluted 10 times in a stepwise manner through 3-fold dilution. The compound (2 ul) diluted in a stepwise manner was added to a 96-well-plate containing 48 ul of a 1× kinase reaction buffer (50 mM HEPES (pH 7.4), 0.01% Tween-20, 5 mM DTT, 0.5 mM Na3VO4, 2 mM EGTA, 10 mM MgCl2).
The RON protein was diluted to a concentration of 49.3 nM in a RON storage buffer (50 mM Tris-HCl (pH 7.5), 150 mM NaCl, 0.5 mM EDTA, 0.02% Triton X-100), and then diluted again to a concentration of 0.4 nM in a 1×kinase reaction buffer. As a substrate cocktail, a RON-specific substrate mixed solution (40 uM ULight-labeled Poly GT, 100 nM ATP) was prepared at a concentration 2 times the final reaction concentration.
(§1) Thereafter, a 384-well-plate was prepared, and 2.5 μl of each of the diluted compounds of Examples was added to a corresponding well of experimental group wells, and 2.5 μl of a 4% DMSO solution was dispensed into high control wells and low control wells.
(§2) Thereafter, 2.5 μL of 0.4 nM RON was dispensed into each of the high control wells and the experimental group wells, and 2.5 μL of the 1× kinase reaction buffer was added to the low control wells, and all the wells were centrifuged at room temperature for 40 seconds at 1,000 RPM, and then incubated at room temperature for 20-30 minutes. Then, 5 μL of the substrate cocktail (2×) was dispensed into each well, and all the wells were centrifuged at room temperature for 40 seconds at 1,000 RPM, and then incubated at room temperature for 60 minutes. Thereafter, 5 μL of 30 mM EDTA was added to each well to terminate the reaction, and all the wells were then incubated again at room temperature for 5 minutes. Thereafter, 5 μL of a 4×phosphotyrosine antibody (Perkin Elmer) containing europium was added to each well, and all the wells were then incubated at room temperature for 60 minutes. After the incubation, the 384-well-plate was read with the Vison plate reader. In this case, the excitation wavelength was 340 nm, and the emission wavelength was 620 nm and 665 nm. The IC50 value of each compound of Examples was derived using the GraphPd Prism7 program.
(In TR-FRET formats the signal depends on donor and acceptor labels being close together.)

The target of a further assay is cMET (Homo sapiens, UniProt P08581). As to the kind of experiment: Inhibitory activity against MET (cMET), TR-FRET kinase assay. Conditions: TR-FRET enzyme assay. It counts as biochemical. How it is done:
In addition, in order to measure the enzyme activity inhibition for cMET, the evaluation was performed in the same manner as the enzyme activity inhibition measurement experiment for RON.
Specifically, the compound was prepared to a concentration of 1 mM in 100% DMSO and was diluted 10 times in a stepwise manner through 3-fold dilution. The compound (2 ul) diluted in a stepwise manner was added to a 96-well-plate containing 48 ul of a 1×kinase reaction buffer (50 mM HEPES (pH 7.4), 0.05% BSA, 0.005% Tween-20, 1 mM DTT, 0.5 mM MnCl2, 20 mM MgCl2).
The cMET protein was diluted to a concentration of 263 nM in a cMET storage buffer (50 mM Tris-HCl (pH 7.5), 150 mM NaCl, 0.05% Brij35, 1 mM DTT, 10% Glycerol), and then diluted again to a concentration of 2 nM in a 1×kinase reaction buffer. As a substrate cocktail, a MET-specific substrate mixed solution (5 uM TK peptide, 10 mM ATP) was prepared at a concentration 2 times the final reaction concentration.
as §1
as §2, with “of 2” for “of 0.4”, “nM cMET” for “nM RON”, “of 90” for “of 30”, “The […]” for “The IC50”

Sequence of cMET (P08581 25-1390): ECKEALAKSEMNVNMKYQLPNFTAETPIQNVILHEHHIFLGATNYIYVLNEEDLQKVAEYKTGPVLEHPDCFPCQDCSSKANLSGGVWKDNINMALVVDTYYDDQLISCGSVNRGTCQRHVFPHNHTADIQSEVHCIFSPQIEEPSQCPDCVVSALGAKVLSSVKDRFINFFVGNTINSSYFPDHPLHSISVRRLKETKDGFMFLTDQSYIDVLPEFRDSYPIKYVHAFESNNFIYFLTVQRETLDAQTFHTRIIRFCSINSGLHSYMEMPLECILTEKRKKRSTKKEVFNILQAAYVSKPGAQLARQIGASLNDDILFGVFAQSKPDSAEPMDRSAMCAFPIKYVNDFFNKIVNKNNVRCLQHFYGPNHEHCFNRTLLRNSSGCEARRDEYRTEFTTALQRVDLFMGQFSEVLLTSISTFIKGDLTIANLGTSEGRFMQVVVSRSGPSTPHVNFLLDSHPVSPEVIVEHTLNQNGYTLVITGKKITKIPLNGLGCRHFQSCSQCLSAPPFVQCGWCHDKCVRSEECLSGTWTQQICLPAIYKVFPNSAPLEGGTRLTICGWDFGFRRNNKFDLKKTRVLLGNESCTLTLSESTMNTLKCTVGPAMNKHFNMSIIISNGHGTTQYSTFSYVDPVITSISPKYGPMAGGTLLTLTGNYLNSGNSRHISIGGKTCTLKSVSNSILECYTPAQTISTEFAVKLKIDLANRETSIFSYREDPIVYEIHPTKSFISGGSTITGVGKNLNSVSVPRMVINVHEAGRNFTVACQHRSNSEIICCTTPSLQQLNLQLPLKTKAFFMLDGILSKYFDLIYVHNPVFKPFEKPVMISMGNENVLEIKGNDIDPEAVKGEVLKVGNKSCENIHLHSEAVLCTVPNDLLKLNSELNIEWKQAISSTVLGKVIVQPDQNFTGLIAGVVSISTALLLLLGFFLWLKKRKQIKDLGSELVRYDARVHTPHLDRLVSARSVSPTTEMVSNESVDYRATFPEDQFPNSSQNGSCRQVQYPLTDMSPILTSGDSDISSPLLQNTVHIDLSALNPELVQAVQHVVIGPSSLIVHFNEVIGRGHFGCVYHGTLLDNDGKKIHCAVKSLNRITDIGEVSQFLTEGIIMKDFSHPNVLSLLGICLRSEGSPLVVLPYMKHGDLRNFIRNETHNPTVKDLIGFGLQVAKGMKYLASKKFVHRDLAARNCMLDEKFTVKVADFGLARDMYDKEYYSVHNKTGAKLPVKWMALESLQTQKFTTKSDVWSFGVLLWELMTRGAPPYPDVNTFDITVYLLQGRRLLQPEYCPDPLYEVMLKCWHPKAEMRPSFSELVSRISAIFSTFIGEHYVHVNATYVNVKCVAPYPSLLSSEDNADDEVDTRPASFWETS
Sequence of RON (Q04912 25-1400, species assumed): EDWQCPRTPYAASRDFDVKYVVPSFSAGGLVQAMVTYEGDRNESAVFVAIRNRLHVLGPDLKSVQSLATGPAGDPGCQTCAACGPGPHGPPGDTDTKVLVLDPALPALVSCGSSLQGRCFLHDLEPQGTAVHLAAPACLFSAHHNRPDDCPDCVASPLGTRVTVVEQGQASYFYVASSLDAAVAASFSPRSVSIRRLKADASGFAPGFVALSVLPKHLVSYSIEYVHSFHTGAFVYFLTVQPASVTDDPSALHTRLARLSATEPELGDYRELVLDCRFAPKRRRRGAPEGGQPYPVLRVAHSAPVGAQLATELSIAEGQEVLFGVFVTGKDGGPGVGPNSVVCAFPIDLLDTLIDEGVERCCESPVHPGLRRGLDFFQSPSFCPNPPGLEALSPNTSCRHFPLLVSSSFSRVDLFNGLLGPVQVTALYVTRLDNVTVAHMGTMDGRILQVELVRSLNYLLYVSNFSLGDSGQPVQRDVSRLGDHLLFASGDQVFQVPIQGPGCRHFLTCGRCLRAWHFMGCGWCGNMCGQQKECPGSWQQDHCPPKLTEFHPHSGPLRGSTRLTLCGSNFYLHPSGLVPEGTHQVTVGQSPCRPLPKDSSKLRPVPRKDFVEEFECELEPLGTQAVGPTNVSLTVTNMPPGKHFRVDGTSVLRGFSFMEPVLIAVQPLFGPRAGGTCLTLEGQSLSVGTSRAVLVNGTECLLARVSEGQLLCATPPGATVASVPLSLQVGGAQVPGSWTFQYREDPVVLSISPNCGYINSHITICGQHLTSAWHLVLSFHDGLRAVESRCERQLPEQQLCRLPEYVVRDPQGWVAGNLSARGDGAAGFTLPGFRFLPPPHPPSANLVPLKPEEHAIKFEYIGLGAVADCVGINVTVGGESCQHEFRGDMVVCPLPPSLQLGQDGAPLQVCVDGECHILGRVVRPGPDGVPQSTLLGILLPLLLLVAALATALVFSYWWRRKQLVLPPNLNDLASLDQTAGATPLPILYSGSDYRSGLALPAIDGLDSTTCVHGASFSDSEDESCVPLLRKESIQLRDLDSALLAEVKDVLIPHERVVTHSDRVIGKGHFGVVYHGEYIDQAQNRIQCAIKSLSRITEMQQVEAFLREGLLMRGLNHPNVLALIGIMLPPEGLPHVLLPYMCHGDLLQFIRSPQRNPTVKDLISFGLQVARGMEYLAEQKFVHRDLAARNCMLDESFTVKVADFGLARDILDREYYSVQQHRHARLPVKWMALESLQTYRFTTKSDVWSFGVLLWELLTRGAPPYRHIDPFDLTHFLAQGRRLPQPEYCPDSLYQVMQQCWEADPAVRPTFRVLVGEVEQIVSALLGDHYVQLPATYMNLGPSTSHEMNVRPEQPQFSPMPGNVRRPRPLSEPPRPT

Regarding `Nc1nccc(Oc2ccc(NC(=O)c3cnn(-c4cc(Cl)ccn4)c3C(F)(F)F)cc2F)c1Cl` [Example 14, N-(4-((2-amino-3-chloropyridin-4-yl)oxy)-3-fluorophenyl)-1-(4-chloropyridin-2-yl)-5-(trifluoromethyl)-1H-pyrazole-4-carboxamide], the half-inhibitory concentration (IC50) is 50 to 500 nM against RON and above 5000 nM against cMET.
`CCc1c(C(=O)Nc2ccc(Oc3ccnc(N)c3Cl)c(F)c2)cnn1-c1cncnc1` [Example 1, N-(4-((2-amino-3-chloropyridin-4-yl)oxy)-3-fluorophenyl)-5-ethyl-1-(pyrimidin-5-yl)-1H-pyrazole-4-carboxamide]: the IC50 lay within 50 to 500 nM at RON and 500 to 5000 nM at cMET.
The corresponding values for `Nc1nccc(Oc2ccc(NC(=O)c3cnn(-c4ncccc4F)c3C(F)(F)F)cc2F)c1NC1CCCCC1` [Example 33, N-(4-((2-amino-3-(cyclohexylamino)pyridin-4-yl)oxy)-3-fluorophenyl)-1-(3-fluoropyridin-2-yl)-5-(trifluoromethyl)-1H-pyrazole-4-carboxamide] are 50 to 500 nM and above 5000 nM.
On to `Nc1ncnc(Oc2ccc(NC(=O)c3cnn(-c4cncnc4)c3C(F)(F)F)cc2F)c1Cl` [Example 44, N-[4-(6-amino-5-chloro-pyrimidin-4-yl)oxy-3-fluoro-phenyl]-1-pyrimidin-5-yl-5-(trifluoromethyl)pyrazole-4-carboxamide], for which the IC50 was 50 to 500 nM at RON and above 5000 nM on cMET.
The corresponding values for `Nc1nccc(Oc2ccc(NC(=O)c3cnn(-c4ccccn4)c3C(F)(F)F)cc2F)c1Cl` [Example 2, N-(4-((2-amino-3-chloropyridin-4-yl)oxy)-3-fluorophenyl)-1-(pyridin-2-yl)-5-(trifluoromethyl)-1H-pyrazole-4-carboxamide] are below 50 nM and 500 to 5000 nM.
Regarding `COc1cccnc1-n1ncc(C(=O)Nc2ccc(Oc3ccnc(N)c3Cl)c(F)c2)c1C(F)(F)F` [Example 15, N-(4-((2-amino-3-chloropyridin-4-yl)oxy)-3-fluorophenyl)-1-(3-methoxypyridin-2-yl)-5-(trifluoromethyl)-1H-pyrazole-4-carboxamide], the IC50 against RON fell in the range of 50 to 500 nM; against cMET, 500 to 5000 nM.
On to `Nc1nccc(Oc2ccc(NC(=O)c3cnn(-c4ncc(F)cn4)c3C(F)(F)F)cc2F)c1Cl` [Example 26, N-(4-((2-amino-3-chloropyridin-4-yl)oxy)-3-fluorophenyl)-1-(5-fluoropyrimidin-2-yl)-5-(trifluoromethyl)-1H-pyrazole-4-carboxamide], for which the IC50 was 50 to 500 nM against RON and above 5000 nM against cMET.
On to `Nc1ncnc(Oc2ccc(NC(=O)c3cnn(-c4ncccc4Cl)c3C(F)(F)F)cc2F)c1Cl` [Example 51, N-[4-(6-amino-5-chloro-pyrimidin-4-yl)oxy-3-fluoro-phenyl]-1-(3-chloro-2-pyridyl)-5-(trifluoromethyl)pyrazole-4-carboxamide], for which the results for the IC50 on RON and on cMET were below 50 nM and 500 to 5000 nM, respectively.
Turning to `CCc1c(C(=O)Nc2ccc(Oc3ccnc(N)c3I)c(F)c2)cnn1-c1ncccc1Cl` [Example 38, N-(4-((2-amino-3-iodopyridin-4-yl)oxy)-3-fluorophenyl)-1-(3-chloropyridin-2-yl)-5-ethyl-1H-pyrazole-4-carboxamide], the IC50 against RON is below 50 nM; on cMET, 500 to 5000 nM.
As for `CCc1c(C(=O)Nc2ccc(Oc3ccnc(N)c3Cl)c(F)c2)cnn1-c1ccncc1` [Example 4, N-(4-((2-amino-3-chloropyridin-4-yl)oxy)-3-fluorophenyl)-5-ethyl-1-(pyridin-4-yl)-1H-pyrazole-4-carboxamide], the IC50 at RON was 500 to 5000 nM; at cMET, above 5000 nM.
The corresponding values for `Nc1nccc(Oc2ccc(NC(=O)c3cnn(-c4cccnn4)c3C(F)(F)F)cc2F)c1Cl` [Example 20, N-(4-((2-amino-3-chloropyridin-4-yl)oxy)-3-fluorophenyl)-1-(pyridazin-3-yl)-5-(trifluoromethyl)-1H-pyrazole-4-carboxamide] are below 50 nM and 500 to 5000 nM.
The corresponding values for `Nc1nccc(Oc2ccc(NC(=O)c3cnn(-c4ncccn4)c3C(F)(F)F)cc2F)c1Cl` [Example 21, N-(4-((2-amino-3-chloropyridin-4-yl)oxy)-3-fluorophenyl)-1-(pyrimidin-2-yl)-5-(trifluoromethyl)-1H-pyrazole-4-carboxamide] are below 50 nM and above 5000 nM.
Turning to `CCc1c(C(=O)Nc2ccc(Oc3ccnc(N)c3Cl)c(F)c2)cnn1-c1ncccc1Cl` [Example 36, N-(4-((2-amino-3-chloropyridin-4-yl)oxy)-3-fluorophenyl)-1-(3-chloropyridin-2-yl)-5-ethyl-1H-pyrazole-4-carboxamide], the IC50 lay in the range of 50 to 500 nM against RON and 500 to 5000 nM on cMET.
Take `Cn1cc(-n2ncc(C(=O)Nc3ccc(Oc4ncnc(N)c4Cl)c(F)c3)c2C(F)(F)F)cn1` [Example 42, N-[4-(6-amino-5-chloro-pyrimidin-4-yl)oxy-3-fluoro-phenyl]-1-(1-methylpyrazol-4-yl)-5-(trifluoromethyl)pyrazole-4-carboxamide]: the IC50 against RON is 500 to 5000 nM; on cMET, above 5000 nM.
The corresponding values for `Nc1nccc(Oc2ccc(NC(=O)c3cnn(-c4ncccc4F)c3C(F)(F)F)c(F)c2)c1Cl` [Example 32, N-(4-((2-amino-3-chloropyridin-4-yl)oxy)-2-fluorophenyl)-1-(3-fluoropyridin-2-yl)-5-(trifluoromethyl)-1H-pyrazole-4-carboxamide] are below 50 nM and 500 to 5000 nM.
As for `CCc1c(C(=O)Nc2ccc(Oc3ccnc(N)c3Cl)c(F)c2)cnn1-c1ncccc1F` [Example 35, N-(4-((2-amino-3-chloropyridin-4-yl)oxy)-3-fluorophenyl)-5-ethyl-1-(3-fluoropyridin-2-yl)-1H-pyrazole-4-carboxamide], the IC50 at RON is below 50 nM; on cMET, above 5000 nM.
Regarding `Cc1ccnc(-n2ncc(C(=O)Nc3ccc(Oc4ncnc(N)c4Cl)c(F)c3)c2C(F)(F)F)n1` [Example 62, N-[4-(6-amino-5-chloro-pyrimidin-4-yl)oxy-3-fluoro-phenyl]-1-(4-methylpyrimidin-2-yl)-5-(trifluoromethyl)pyrazole-4-carboxamide], the results for the IC50 on RON and at cMET were 50 to 500 nM and above 5000 nM, respectively.
As to `Cc1cccnc1-n1ncc(C(=O)Nc2ccc(Oc3ccnc(N)c3Cl)c(F)c2)c1C(F)(F)F` [Example 9, N-(4-((2-amino-3-chloropyridin-4-yl)oxy)-3-fluorophenyl)-1-(3-methylpyridin-2-yl)-5-(trifluoromethyl)-1H-pyrazole-4-carboxamide], the IC50 against RON was below 50 nM; against cMET, 500 to 5000 nM.
The corresponding values for `Nc1nccc(Oc2ccc(NC(=O)c3cnn(-c4ncccc4Cl)c3C(F)(F)F)cc2F)c1Cl` [Example 10, N-(4-((2-amino-3-chloropyridin-4-yl)oxy)-3-fluorophenyl)-1-(3-chloropyridin-2-yl)-5-(trifluoromethyl)-1H-pyrazole-4-carboxamide] are below 50 nM and 500 to 5000 nM.

Source of the values: patent US20240425480A1, “NOVEL PYRIDINE DERIVATIVE COMPOUND AS RON INHIBITOR” (LG CHEM, LTD., priority 2021, published 2024).
